The target in one experiment is T1, LATS2 (Homo sapiens, UniProt Q9NRM7).
T1 sequence (Q9NRM7 1-1088): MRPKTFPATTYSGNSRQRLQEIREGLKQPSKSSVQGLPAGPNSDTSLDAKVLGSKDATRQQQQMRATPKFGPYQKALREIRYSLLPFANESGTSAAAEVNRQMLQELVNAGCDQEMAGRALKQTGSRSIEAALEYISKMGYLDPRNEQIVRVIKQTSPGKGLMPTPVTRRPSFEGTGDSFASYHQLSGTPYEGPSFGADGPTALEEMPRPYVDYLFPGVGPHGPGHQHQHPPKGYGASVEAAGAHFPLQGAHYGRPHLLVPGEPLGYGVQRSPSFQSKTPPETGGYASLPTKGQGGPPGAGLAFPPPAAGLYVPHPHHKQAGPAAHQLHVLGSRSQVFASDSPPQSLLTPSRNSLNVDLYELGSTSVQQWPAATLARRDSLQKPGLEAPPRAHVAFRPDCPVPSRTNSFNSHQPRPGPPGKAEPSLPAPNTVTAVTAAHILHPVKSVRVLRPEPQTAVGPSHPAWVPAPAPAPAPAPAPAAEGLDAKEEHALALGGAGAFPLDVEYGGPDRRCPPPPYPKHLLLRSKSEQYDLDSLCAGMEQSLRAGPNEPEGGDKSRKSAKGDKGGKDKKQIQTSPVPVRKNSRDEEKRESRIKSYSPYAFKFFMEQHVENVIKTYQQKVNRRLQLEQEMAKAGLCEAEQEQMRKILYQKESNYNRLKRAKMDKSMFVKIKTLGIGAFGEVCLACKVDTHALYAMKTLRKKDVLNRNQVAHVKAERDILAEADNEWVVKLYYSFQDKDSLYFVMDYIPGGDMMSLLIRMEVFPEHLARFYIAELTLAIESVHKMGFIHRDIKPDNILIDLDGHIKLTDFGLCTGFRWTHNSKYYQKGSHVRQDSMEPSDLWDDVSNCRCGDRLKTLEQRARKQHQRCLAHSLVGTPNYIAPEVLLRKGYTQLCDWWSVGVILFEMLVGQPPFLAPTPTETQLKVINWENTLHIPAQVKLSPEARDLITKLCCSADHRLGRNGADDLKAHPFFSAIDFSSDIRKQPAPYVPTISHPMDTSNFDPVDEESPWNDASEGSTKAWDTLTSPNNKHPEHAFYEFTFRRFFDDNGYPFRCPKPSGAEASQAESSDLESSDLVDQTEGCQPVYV
Kind of experiment: RBC HotSpot kinase assay (33P-ATP, P81 filter-binding), LATS2. Type of experiment: biochemical. The note with it: Table 28, biochemical kinase assay; read-out: LATS2 IC50. Summed up:
(§1)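 Compounds were run as single 10-point titrations to give IC50 values in nM. Each kinase was mixed with substrate and cofactors in 20 mM Hepes pH 7.5 reaction buffer with 1% DMSO, then exposed to compound for 20 min. 33P-ATP was added for a 2 h room-temperature reaction, with activity measured by P81 filter binding.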

Another experiment has as its target T2, LATS1 (Homo sapiens, UniProt O95835).
T2 sequence (O95835 1-1130): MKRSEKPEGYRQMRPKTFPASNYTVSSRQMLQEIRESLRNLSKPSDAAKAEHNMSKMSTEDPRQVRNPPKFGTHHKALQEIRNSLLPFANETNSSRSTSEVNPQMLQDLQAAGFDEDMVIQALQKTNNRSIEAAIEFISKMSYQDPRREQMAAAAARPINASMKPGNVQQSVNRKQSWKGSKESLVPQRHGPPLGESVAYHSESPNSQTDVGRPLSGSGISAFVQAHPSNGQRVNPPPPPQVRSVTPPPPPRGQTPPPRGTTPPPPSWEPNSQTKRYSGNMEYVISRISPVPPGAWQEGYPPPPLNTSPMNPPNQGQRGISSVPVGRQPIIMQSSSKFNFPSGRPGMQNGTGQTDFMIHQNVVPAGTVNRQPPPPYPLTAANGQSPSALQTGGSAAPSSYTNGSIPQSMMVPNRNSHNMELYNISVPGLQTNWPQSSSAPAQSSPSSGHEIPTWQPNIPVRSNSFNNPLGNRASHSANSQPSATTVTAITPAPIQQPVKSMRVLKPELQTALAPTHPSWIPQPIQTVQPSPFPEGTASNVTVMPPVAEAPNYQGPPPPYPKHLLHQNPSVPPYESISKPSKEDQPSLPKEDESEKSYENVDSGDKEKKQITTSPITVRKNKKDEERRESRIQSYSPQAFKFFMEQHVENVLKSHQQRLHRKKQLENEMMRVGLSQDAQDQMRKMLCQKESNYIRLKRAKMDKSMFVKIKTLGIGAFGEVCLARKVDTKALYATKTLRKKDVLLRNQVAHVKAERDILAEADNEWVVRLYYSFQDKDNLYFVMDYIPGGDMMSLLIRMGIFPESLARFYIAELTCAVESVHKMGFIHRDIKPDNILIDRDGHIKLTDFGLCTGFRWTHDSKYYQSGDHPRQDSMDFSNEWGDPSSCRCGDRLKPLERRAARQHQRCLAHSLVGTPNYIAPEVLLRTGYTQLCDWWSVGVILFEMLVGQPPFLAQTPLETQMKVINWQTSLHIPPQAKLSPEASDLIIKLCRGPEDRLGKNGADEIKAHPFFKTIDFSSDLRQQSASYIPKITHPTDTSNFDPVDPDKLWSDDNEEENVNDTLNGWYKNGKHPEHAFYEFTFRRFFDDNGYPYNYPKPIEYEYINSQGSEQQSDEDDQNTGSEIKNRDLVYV
Description: RBC HotSpot kinase assay (33P-ATP, P81 filter-binding), LATS1. Type of experiment: biochemical. The note with it: Table 28, biochemical kinase assay; read-out: LATS1 IC50. The gist of the method:
as §1

The text below walks through data of US20250361230A1, “LATS Inhibitors and Uses Thereof” (The USA, as Represented by the Secretary, Dept. of Heath …, priority 2022, published 2025).

What is called IC50 is the concentration at which inhibition is half-maximal. For the compound `Cc1cc(-c2ccnc3[nH]cc(F)c23)cc(F)c1C1(O)CC2(CN(C3COC3)C2)C1` [Compound 139, 6-(2-fluoro-4-(3-fluoro-1H-pyrrolo[2,3-b]pyridin-4-yl)-6-methylphenyl)-2-(oxetan-3-yl)-2-azaspiro[3.3]heptan-6-ol], the half-inhibitory concentration (IC50) on LATS2 was 9 nM; at LATS1, 5.9 nM.
Take `O=C([C@H]1CCCN1)N1CCC(O)(c2ccc(-c3ccnc4[nH]cc(F)c34)cc2)CC1` [Compound 142]: the values for the 50% inhibitory concentration (IC50) on LATS2 and at LATS1 were 4.4 nM and 7.8 nM, respectively.
Turning to `Fc1c[nH]c2nccc(-c3ccc(C4CCNCC4)cc3)c12` [Compound 169, 3-fluoro-4-(4-(piperidin-4-yl)phenyl)-1H-pyrrolo[2,3-b]pyridine], the concentration for half-maximal inhibition (IC50) at LATS2 is 14 nM; at LATS1, 15 nM.
Turning to `Fc1c[nH]c2nccc(-c3ccc(C4CCNCC4)c(Cl)c3)c12` [Compound 172, 4-(3-chloro-4-(piperidin-4-yl)phenyl)-3-fluoro-1H-pyrrolo[2,3-b]pyridine], the values for the IC50 on LATS2 and at LATS1 were 19 nM and 9.6 nM, respectively.
With `Clc1c[nH]c2nccc(-c3ccc(C4CCNCC4)cc3)c12` [Compound 173, 3-chloro-4-(4-(piperidin-4-yl)phenyl)-1H-pyrrolo[2,3-b]pyridine], the IC50 turned out to be 8 nM at LATS2 and 7.2 nM at LATS1.
Consider `Cc1cc(-c2ccnc3[nH]ccc23)ccc1C1CCNCC1` [Compound 177, 4-(3-methyl-4-(piperidin-4-yl)phenyl)-1H-pyrrolo[2,3-b]pyridine], for which the results for the concentration for half-maximal inhibition (IC50) at LATS2 and at LATS1 were 14 nM and 11 nM, respectively.
Take `c1cc(-c2ccc(C3CC4CCC(C3)N4)cc2)c2cc[nH]c2n1` (centres unmarked) [Compound 184, 4-(4-(8-azabicyclo[3.2.1]octan-3-yl)phenyl)-1H-pyrrolo[2,3-b]pyridine]: the 50% inhibitory concentration (IC50) amounted to 50 nM on LATS2 and 25 nM at LATS1.
With `CC1CC(c2ccc(-c3ccnc4[nH]ccc34)cc2)CC(C)N1` (centres unmarked) [Compound 187, 4-(4-(2,6-dimethylpiperidin-4-yl)phenyl)-1H-pyrrolo[2,3-b]pyridine], the half-maximal inhibitory concentration (IC50) on LATS2 was 62.6 nM; on LATS1, 66.1 nM.
With `CC1(c2ccc(-c3ccnc4[nH]ccc34)cc2)CCNCC1` [Compound 201, 4-(4-(4-methylpiperidin-4-yl)phenyl)-1H-pyrrolo[2,3-b]pyridine], the IC50 at LATS2 is 43 nM; at LATS1, 59 nM.
On to `Cc1cc(-c2ccnc3[nH]cc(F)c23)ccc1CN` [Compound 211, (4-(3-fluoro-1H-pyrrolo[2,3-b]pyridin-4-yl)-2-methylphenyl) methanamine], for which the results for the half-maximal inhibitory concentration (IC50) on LATS2 and at LATS1 were 5.5 nM and 3.7 nM, respectively.
Consider `NCc1ccc(-c2ccnc3[nH]cc(-c4ccccc4)c23)cc1-c1ccccc1` [Compound 219, (5-(3-phenyl-1H-pyrrolo[2,3-b]pyridin-4-yl)-[1,1′-biphenyl]-2-yl)methanamine], for which the concentration for half-maximal inhibition (IC50) on LATS2 amounted to 128 nM; on LATS1, 39 nM.
With `COC(=O)c1c[nH]c2nccc(-c3ccc(CN)cc3)c12` [Compound 223, methyl 4-(4-(aminomethyl)phenyl)-1H-pyrrolo[2,3-b]pyridine-3-carboxylate], the IC50 on LATS2 is 1420 nM; on LATS1, 27.4 nM.
Take `Cc1cccc(-c2c[nH]c3nccc(-c4ccc(CN)cc4)c23)c1` [Compound 230, (4-(3-(m-tolyl)-1H-pyrrolo[2,3-b]pyridin-4-yl)phenyl) methanamine]: the values for the IC50 at LATS2 and on LATS1 were 16 nM and 17 nM, respectively.
Taken in the same sequence, the figures for `CC(C)(N)c1ccc(-c2ccnc3[nH]cc(F)c23)cc1` [Compound 238, 2-(4-(3-fluoro-1H-pyrrolo[2,3-b]pyridin-4-yl)phenyl)propan-2-amine] were 1.2 nM and 1.1 nM.
In the same order, the values of `NCc1ccc(-c2ccnc3[nH]cc(-c4cccnc4)c23)cc1` [Compound 245, (4-(3-(pyridin-3-yl)-1H-pyrrolo[2,3-b]pyridin-4-yl)phenyl) methanamine] are 24 nM and 12 nM.
With `NCc1ccc(-c2ccnc3[nH]cc(-c4ccccc4)c23)cc1` [Compound 253, (4-(3-phenyl-1H-pyrrolo[2,3-b]pyridin-4-yl)phenyl) methanamine], the IC50 was found to be 5 nM at LATS2 and 13 nM at LATS1.
Take `Cc1cc(-c2ccnc3[nH]cc(Cl)c23)ccc1CN` [Compound 254, (4-(3-chloro-1H-pyrrolo[2,3-b]pyridin-4-yl)-2-methylphenyl) methanamine]: the IC50 on LATS2 was 5.2 nM; at LATS1, 3.4 nM.
Turning to `Cc1cc(-c2ccnc3[nH]ccc23)ccc1CN` [Compound 266, (2-methyl-4-(1H-pyrrolo[2,3-b]pyridin-4-yl)phenyl) methanamine], the IC50 was 5 nM on LATS2 and 6 nM at LATS1.
On to `c1cc(-c2ccc3c(c2)CCNC3)c2cc[nH]c2n1` [Compound 267, 6-(1H-pyrrolo[2,3-b]pyridin-4-yl)-1,2,3,4-tetrahydroiso-quinoline], for which the values for the IC50 at LATS2 and at LATS1 were 10 nM and 11 nM, respectively.
`c1cc(-c2ccc(C3CCCCN3)cc2)c2cc[nH]c2n1` (centres unmarked) [Compound 271, 4-(4-(piperidin-2-yl)phenyl)-1H-pyrrolo[2,3-b]pyridine]: the concentration for half-maximal inhibition (IC50) on LATS2 worked out at 25 nM; at LATS1, 20 nM.
Consider `NCc1ccc(-c2ccnc3[nH]cc(F)c23)cc1` [Compound 275, (4-(3-fluoro-1H-pyrrolo[2,3-b]pyridin-4-yl)phenyl) methanamine], for which the results for the IC50 at LATS2 and at LATS1 were 8.4 nM and 13 nM, respectively.
`NCc1ccc(-c2ccnc3[nH]cc(Cl)c23)cc1` [Compound 276, (4-(3-chloro-1H-pyrrolo[2,3-b]pyridin-4-yl)phenyl) methanamine]: the half-maximal inhibitory concentration (IC50) at LATS2 was found to be 5.8 nM; on LATS1 it was 12 nM.
As to `NCc1ccc(-c2ccnc3[nH]ccc23)cc1C(F)(F)F` [Compound 284, (4-(1H-pyrrolo[2,3-b]pyridin-4-yl)-2-(trifluoromethyl)phenyl) methanamine], the IC50 worked out at 45 nM at LATS2 and 10 nM on LATS1.
For the compound `NCc1ccc(-c2ccnc3[nH]ccc23)cc1` [Compound 287, (4-(1H-pyrrolo[2,3-b]pyridin-4-yl)phenyl) methanamine], the IC50 at LATS2 came out at 34 nM; at LATS1, 23 nM.
Taken in the same sequence, the figures for `Cc1cc(-c2ccnc3[nH]cc(F)c23)cc(F)c1[C@@]1(O)[C@H](C)CN(C)C[C@@H]1C` [Compound 304, (3S,4s,5R)-4-(2-fluoro-4-(3-fluoro-1H-pyrrolo[2,3-b]pyridin-4-yl)-6-methylphenyl)-1,3,5-trimethylpiperidin-4-ol] were 4 nM and 5.1 nM.
